PubChem BioAssay (NCI)
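GI50: concentration for 50% inhibition of growth. TGI: concentration producing complete growth inhibition.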

Assays:
Assay in all cases: NCI tumour cell line growth inhibition, 384-well format
[1] = tested on: OVCAR-8 ovarian
[2] = tested on: NCI/ADR-RES ovarian
[3] = tested on: SF-539 CNS
[4] = tested on: NCI-H322M lung
[5] = tested on: MDA-MB-435 melanoma
[6] = tested on: SF-295 CNS
[7] = tested on: NCI-H522 lung
[8] = tested on: KM12 colon
[9] = tested on: SNB-75 CNS
[10] = tested on: CAKI-1 renal
[11] = tested on: HCT-15 colon
[12] = tested on: RXF 393 renal
[13] = tested on: OVCAR-3 ovarian

SMILES: C[C@@H](c1ccc2nccn2c1)n1nnc2ncc(-c3cnn(C)c3)nc21
- GI50 [1]: > 100 µM
- TGI [1]: > 100 µM
- GI50 [2]: > 100 µM
- TGI [2]: > 100 µM
- GI50 [3]: > 100 µM
- TGI [3]: > 100 µM
- GI50 [4]: > 100 µM
- TGI [4]: > 100 µM
- GI50 [5]: > 100 µM
- TGI [5]: > 100 µM
- GI50 [6]: 25.2 µM
- TGI [6]: > 100 µM
- GI50 [7]: > 75.5 µM
- TGI [7]: > 100 µM
- GI50 [8]: 35 µM
- TGI [8]: > 100 µM
- GI50 [9]: > 76.8 µM
- TGI [9]: > 100 µM
- GI50 [10]: > 51.5 µM
- TGI [10]: > 100 µM
- GI50 [11]: > 100 µM
- TGI [11]: > 100 µM
- GI50 [12]: > 75.4 µM
- TGI [12]: > 100 µM
- GI50 [13]: > 100 µM
- TGI [13]: > 100 µM
